# In ChEMBL document CHEMBL1149636:
# Biological target: Carbonic anhydrase 4 (Homo sapiens) (UniProt P22748)
# Sequence (P22748 whole entry): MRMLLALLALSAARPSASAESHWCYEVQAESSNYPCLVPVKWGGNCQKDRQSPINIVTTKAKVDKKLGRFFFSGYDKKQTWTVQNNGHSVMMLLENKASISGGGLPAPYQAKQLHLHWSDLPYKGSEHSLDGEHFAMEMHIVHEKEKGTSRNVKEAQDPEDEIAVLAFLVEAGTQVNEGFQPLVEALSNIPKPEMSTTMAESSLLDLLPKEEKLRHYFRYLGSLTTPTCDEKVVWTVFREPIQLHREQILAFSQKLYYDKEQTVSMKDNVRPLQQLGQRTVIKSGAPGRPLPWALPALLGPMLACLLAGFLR
# Description: Inhibition of human recombinant full length CA4 by stopped-flow technique
smiles,measurement,value
"CCNC1CN(CCCOC)S(=O)(=O)c2sc(S(N)(=O)=O)cc21 (single isomer, unassigned)",Kinact,3.95 µM
